EP0986381B1, “USE OF DITERPENES LIKE HYPOESTOXIDES FOR THE MANUFACTURE OF A MEDICAMENT FOR IMMUNOSUPPRESSION, ANTICANCER AND ANTIVIRAL TREATMENT” (Immune Modulation, Inc., priority 1997, dated 1998)

Columns and labels:
[1] = tested on: human two-way mixed lymphocyte reaction (PBMCs from two individuals); test: Two-way mixed leukocyte reaction (MLR), 3H-thymidine incorporation; assay type: cell-based
Description: The MLR is an assay recognized by those skilled in the art as an in vitro predictor of in vivo immunosuppressant activity. The MLR is an in vitro model of T-cell recognition of foreign major histocompatibility complex (MHC) gene products and was used as a predictive test of cell-mediated graft rejection (Abbas, A.K., et al., eds, 1994, 2nd ed. Cellular and Molecular Immunology, W.B. Saunders Co., USA). Graft rejection is carried out by T cells that recognize MHC molecules and destroy the graft. This process can be studied in vivo, but in-depth analysis, especially in humans, required the development of tests such as the MLR as an in vitro correlate of graft rejection. (Janeway, Chas. and Travers, Paul, Immunobiology, 2nd Ed., Garland Publishing, Inc, New York (1996)). It is well known in the art that the MLR is induced by co-culturing mononuclear leukocytes from one individual with mononuclear leukocytes derived from another individual. If there are differences in the alleles of the MHC genes between the two individuals, a large proportion of the mononuclear cells will proliferate over a period of 4-7 days, and is referred to as allogeneic MLR. The level of proliferative response is measured by incorporation of ^3H-thymidine into DNA during cell replication. Because the cells from each donor react and proliferate against the other, the resultant response is known as a "two-way MLR". JO-4 was tested in the MLR for its ability to "immunosuppress".
Mononuclear cells (at 2 x 10^6/ml) of each donor were first mixed thoroughly together in a 50 ml tube at a 1:1 ratio with volume. […] Cells were harvested onto glass fiber filters (Packard, Downers Grove, IL) with a 96-well automatic cell harvester (TOMTEC, Hamden, CT) and were counted directly on a Matrix 9600 beta counter (Packard).
Data were expressed as percent inhibition (% Inhibition) according to the following formula: % Inhibition = 100 -((Counts per minute (CPM) for wells with drug x 100))/(CPM for wells without drug) [formula] […]

HSV-2 = test: In vitro HSV-2 replication assay, Hybriwix Probe Systems; assay type: cell-based, Herpes simplex virus
Description: The antiviral activity of the drug was determined using the Hybriwix™ Probe Systems (Herpes Antiviral Susceptibility Test kit: Diagnostic Hybrids, Inc., Athens, OH). Briefly, either HSV-1 or HSV-2 isolates (ATTC, Rockville, MD) were pre-adsorbed at 37°C and 5% CO2 in a humidified incubator for 60 minutes on African green monkey Kidney cells in a 24-well flat-bottom plate. Following pre-adsorption, the viral inoculum was removed and the growth medium containing various concentrations of appropriate drug was placed in appropriate wells. The culture was continued for 48 hours for the amplification of the virus. Quantification of the HSV DNA present in each well was determined by the nucleic acid hybridization method. The cells and/or virus were lysed with DNA wicking agent and the single-stranded DNA was immobilized on a Hybriwix™ filter by a vertical capillary absorption of the wicking agent/DNA solution. The amount of HSV target DNA from each well was determined using radioactive (I^125)-HSV DNA probe containing genetic sequences, which are homologous to HSV-1 or HSV-2 sequences. The amount of radioactivity present on the Hybriwix™ was dependent upon the amount of HSV DNA present after culture, and was determined in a gamma counter (Packard Instrument Co., Meriden, CT).

[2] = Colorimetric MTT cytotoxicity assay, CV-1 cells; assay type: cell-based; conditions: african green monkey, read-out: concentration giving cytotoxicity of greater than 50%
Description: Normal African green monkey kidney cells (CV-1): CV-1 cells from the Hybriwix™ Probe Systems: Herpes Antiviral Susceptibility Test kit (Diagnostic Hybrids, Inc., Athens, OH) were used for toxicity testing of JO-4A by MTT assay. Colorimetric MTT assay: Cytotoxic effects of drugs were determined in vitro by a colorimetric assay (Mosmann, T., J. Immunol. Methods, 65: 55-63, 1983). Briefly, 1000 cells per well (100 µl) in a 96-well flat-bottom plate were cultured either with the culture medium alone or with various concentrations of drug at 37°C, in a 5% CO2-95% air humidified incubator for 72 hours. At the end of the culture, 10 µl of 5 mg/ml sterile solution of 3-(4,5-Dimethylthiazol-2yl)-2,5-diphenyltetrazolium bromide (MTT) (Sigma Chemicals, Saint Louis, MO) in PBS was added per well and the incubation was resumed for an additional 4 hours. Acid-isopropanol (100 µl of 0.04 N HCl in isopropanol) was added to all wells and kept at room temperature for 30 minutes. Mixing with a multichannel pipetter dissolved the dark blue crystals and the absorbance was measured at 545-650 nm using an ELISA plate reader.

Row | Compound | IC50 ([1]; Homo sapiens, Leukocyte, 120 h, 5 days) [µM] | inhibition at 10 µM ([1]; Homo sapiens, Leukocyte, at 10.0 µM) [%] | replication and growth of HSV-2 (HSV-2; African Green Monkey kidney cells) | CC50 at 72 h [2] [µM] | effect on two-way MLR ([1]; JO-4 at 1.0, 0.5 or 0.25 µg/ml, 5 days) | inhibition at 3.125 µM (HSV-2; Human alphaherpesvirus 2, 48 h, 3.125 µM, two days, African green monkey kidney cells) [%] | inhibition at 12.5 µM (HSV-2; Human alphaherpesvirus 2, 48 h, 12.5 µM, two days, African green monkey kidney cells) [%] | IC50 (HSV-2; Human alphaherpesvirus 2, 48 h, two days, African green monkey kidney cells, read-out: IC50 dose on HSV-1 inhibition (paragraph on HSV-2 replication)) [µM]
1 | C=C1C(=O)CC2CC3OC3(C)CCC3OC3(C)CC(O)C1C2(C)C (stereo not drawn) [JO-4A] | 5 to 10 | 64 | inhibited | ~25 | – | – | – | –
2 | C=C1C(=O)C[C@H]2C[C@@H]3O[C@@]3(C)CC[C@@H]3O[C@@]3(C)C[C@@H](OC(C)=O)[C@H]1C2(C)C [JO-4, hypoestoxide] | – | – | – | > 50 | inhibited | 58 | 65 | < 3.12
